The text below walks through data of US12441768B2, “Compositions and methods for treating endometriosis” (EndoMet Biosciences, Inc., priority 2018, dated 2025).

The assay deals with T1, β-catenin (Homo sapiens, UniProt P35222).
T1 sequence (P35222 1-781): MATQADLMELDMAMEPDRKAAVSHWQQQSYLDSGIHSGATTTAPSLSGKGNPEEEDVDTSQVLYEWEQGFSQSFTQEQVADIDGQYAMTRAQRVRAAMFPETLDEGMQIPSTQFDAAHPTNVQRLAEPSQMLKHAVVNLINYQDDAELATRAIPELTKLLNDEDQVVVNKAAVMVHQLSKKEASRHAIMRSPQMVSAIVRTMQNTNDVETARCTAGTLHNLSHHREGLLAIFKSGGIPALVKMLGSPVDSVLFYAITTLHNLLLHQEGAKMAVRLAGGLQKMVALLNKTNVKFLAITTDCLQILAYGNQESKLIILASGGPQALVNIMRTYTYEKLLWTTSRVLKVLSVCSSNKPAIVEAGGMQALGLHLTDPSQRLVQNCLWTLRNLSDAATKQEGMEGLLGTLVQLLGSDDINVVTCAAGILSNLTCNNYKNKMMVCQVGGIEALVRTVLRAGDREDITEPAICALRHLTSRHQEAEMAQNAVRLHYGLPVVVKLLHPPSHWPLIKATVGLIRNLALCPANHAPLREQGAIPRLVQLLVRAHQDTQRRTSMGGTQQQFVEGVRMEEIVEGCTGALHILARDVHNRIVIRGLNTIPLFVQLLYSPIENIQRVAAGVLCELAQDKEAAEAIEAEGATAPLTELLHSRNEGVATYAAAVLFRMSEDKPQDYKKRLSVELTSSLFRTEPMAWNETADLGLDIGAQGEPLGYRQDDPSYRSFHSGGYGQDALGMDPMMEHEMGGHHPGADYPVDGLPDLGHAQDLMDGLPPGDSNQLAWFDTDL
The assay can be described thus: KD50 measurement using competitive fluorescence polarization (FP) with labelled TCF4. The note with it: fluorescence polarization, β-catenin. In kind it is binding. In short, it runs like this:
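Competitive FP in which unlabelled inhibitor (10 nM to 30 uM dilution series) displaces 5 nM labelled TCF4 from 100 nM β-catenin, room temperature. Read-out ex 470 nm, em 520 nm; experiment repeated three times.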
(Fluorescence polarisation rises when a labelled molecule tumbles more slowly, as on binding a larger partner.)

Molecules are shown by their SMILES. Read-outs that look alike come from different tables or passages of the source. Where a SMILES comes first, the peptide text is derived from it.

For `CC[C@H](C)[C@@H]1NC(=O)[C@@H](NC(=O)[C@H](CCC(N)=O)NC(=O)[C@H](C)N(C)C(C)=O)CCCCNC(=O)CC[C@@H](C(=O)N[C@@H](Cc2c[nH]cn2)C(=O)N[C@H](C(=O)N[C@@H](CCC(N)=O)C(=O)N[C@@H](CCCNC(=N)N)C(=O)N[C@H](C(=O)N[C@@H](Cc2c[nH]c3ccccc23)C(=O)NCC(N)=O)C(C)C)C2CCCCC2)NC(=O)[C@H](CC(N)=O)NC(=O)[C@H](CC(C)C)NC1=O` [compound 433] (HELM PEPTIDE1{[ac].[meA].Q.K.I.L.N.E.H.[O=C([C@@H](N[*:1])C1CCCCC1)[*:2]].Q.R.V.W.G.[am]}$PEPTIDE1,PEPTIDE1,4:R3-8:R3$$$V2.0), the “β-Cat FP Hill slope” value is 0.7. Moreover, the Kd (in general, the concentration at which binding is half-saturated) (read-out: β-Cat FP KD) is 400 to 1000 nM.

As to `CCCCCCCCCCCC(=O)N(C)[C@@H](C)C(=O)N[C@@H](CCC(N)=O)C(=O)N[C@H]1CCCCNC(=O)CC[C@@H](C(=O)N[C@@H](Cc2c[nH]cn2)C(=O)N[C@H](C(=O)N[C@@H](CCC(N)=O)C(=O)N[C@@H](CCCNC(=N)N)C(=O)N[C@H](C(=O)N[C@@H](Cc2c[nH]c3ccccc23)C(=O)NCC(N)=O)C(C)C)C2CCCCC2)NC(=O)[C@H](CC(N)=O)NC(=O)[C@H](CC(C)C)NC(=O)[C@H]([C@@H](C)CC)NC1=O` [compound 434] (HELM PEPTIDE1{[CCCCCCCCCCCC(=O)[*:2]].[meA].Q.K.I.L.N.E.H.[O=C([C@@H](N[*:1])C1CCCCC1)[*:2]].Q.R.V.W.G.[am]}$PEPTIDE1,PEPTIDE1,4:R3-8:R3$$$V2.0), the Kd (read-out: β-Cat FP KD) was under 400 nM.

In the case of `CCCCCCCCCCCC(=O)N[C@@H](Cc1c[nH]c2ccccc12)C(=O)N(C)[C@@H](C)C(=O)N[C@@H](CCC(N)=O)C(=O)N[C@H]1CCCCNC(=O)CC[C@@H](C(=O)N[C@@H](Cc2c[nH]cn2)C(=O)N[C@H](C(=O)N[C@@H](CCC(N)=O)C(=O)N[C@@H](CCCNC(=N)N)C(=O)N[C@H](C(=O)N[C@@H](Cc2c[nH]c3ccccc23)C(=O)NCC(N)=O)C(C)C)C2CCCCC2)NC(=O)[C@H](CC(N)=O)NC(=O)[C@H](CC(C)C)NC(=O)[C@H]([C@@H](C)CC)NC1=O` [compound 436] (HELM PEPTIDE1{[CCCCCCCCCCCC(=O)[*:2]].W.[meA].Q.K.I.L.N.E.H.[O=C([C@@H](N[*:1])C1CCCCC1)[*:2]].Q.R.V.W.G.[am]}$PEPTIDE1,PEPTIDE1,5:R3-9:R3$$$V2.0), under “read-out: β-Cat FP KD”, the Kd was over 30000 nM.

For `CC[C@H](C)[C@H](NC(=O)[C@H](CO)NC(=O)[C@H](CCC(N)=O)NC(=O)[C@H](C)N(C)C(=O)[C@H](Cc1c[nH]c2ccccc12)NC(C)=O)C(=O)N[C@@H](CC(C)C)C(=O)N[C@@H](CC(=O)O)C(=O)N[C@H]1CCC(=O)NCCCC[C@@H](C(=O)N[C@H](C(=O)N[C@@H](Cc2c[nH]c3ccccc23)C(=O)NCC(N)=O)C(C)C)NC(=O)[C@H](CCC(N)=O)NC(=O)[C@H](C(C)C)NC(=O)[C@H](Cc2c[nH]cn2)NC1=O` [compound 437] (HELM PEPTIDE1{[ac].W.[meA].Q.S.I.L.D.E.H.V.Q.K.V.W.G.[am]}$PEPTIDE1,PEPTIDE1,9:R3-13:R3$$$V2.0), the “β-Cat FP Hill slope” value was 0.7. For the same compound, the Kd (read-out: β-Cat FP KD) is under 400 nM.

Regarding `CCCCCCCCC(=O)N[C@@H](Cc1c[nH]c2ccccc12)C(=O)N(C)[C@@H](C)C(=O)N[C@@H](CCC(N)=O)C(=O)N[C@@H](CO)C(=O)N[C@H](C(=O)N[C@@H](CC(C)C)C(=O)N[C@@H](CC(=O)O)C(=O)N[C@H]1CCC(=O)NCCCC[C@@H](C(=O)N[C@H](C(=O)N[C@@H](Cc2c[nH]c3ccccc23)C(=O)NCC(N)=O)C(C)C)NC(=O)[C@H](CCC(N)=O)NC(=O)[C@H](C(C)C)NC(=O)[C@H](Cc2c[nH]cn2)NC1=O)[C@@H](C)CC` [compound 438] (HELM PEPTIDE1{[CCCCCCCCC(=O)[*:2]].W.[meA].Q.S.I.L.D.E.H.V.Q.K.V.W.G.[am]}$PEPTIDE1,PEPTIDE1,9:R3-13:R3$$$V2.0), for the setting “read-out: β-Cat FP KD”, the Kd is under 400 nM.

In the case of `CCCCCCCCCCCC(=O)N[C@@H](Cc1c[nH]c2ccccc12)C(=O)N(C)[C@@H](C)C(=O)N[C@@H](CCC(N)=O)C(=O)N[C@@H](CO)C(=O)N[C@H](C(=O)N[C@@H](CC(C)C)C(=O)N[C@@H](CC(=O)O)C(=O)N[C@H]1CCC(=O)NCCCC[C@@H](C(=O)N[C@H](C(=O)N[C@@H](Cc2c[nH]c3ccccc23)C(=O)NCC(N)=O)C(C)C)NC(=O)[C@H](CCC(N)=O)NC(=O)[C@H](C(C)C)NC(=O)[C@H](Cc2c[nH]cn2)NC1=O)[C@@H](C)CC` [compound 439] (HELM PEPTIDE1{[CCCCCCCCCCCC(=O)[*:2]].W.[meA].Q.S.I.L.D.E.H.V.Q.K.V.W.G.[am]}$PEPTIDE1,PEPTIDE1,9:R3-13:R3$$$V2.0), the Kd (read-out: β-Cat FP KD) is under 400 nM.

In the case of `CCCCCCCCCCCC(=O)N[C@@H](CCC(=O)O)C(=O)N[C@@H](CC(=O)O)C(=O)N1CCC[C@H]1C(=O)N[C@@H](CCC(N)=O)C(=O)N[C@H]1CCCCNC(=O)CC[C@@H](C(=O)N[C@@H](Cc2c[nH]cn2)C(=O)N[C@@H](CC(C)C)C(=O)N[C@@H](CCC(N)=O)C(=O)N[C@@H](CCCNC(=N)N)C(=O)N[C@H](C(=O)N[C@@H](CC(C)C)C(=O)N[C@@H](CCCCN)C(N)=O)C(C)C)NC(=O)[C@H](CC(=O)O)NC(=O)[C@H](CC(C)C)NC(=O)[C@H]([C@@H](C)CC)NC1=O` [compound 444] (HELM PEPTIDE1{[CCCCCCCCCCCC(=O)[*:2]].E.D.P.Q.K.I.L.D.E.H.L.Q.R.V.L.K.[am]}$PEPTIDE1,PEPTIDE1,6:R3-10:R3$$$V2.0), under “read-out: β-Cat FP KD”, the Kd is under 400 nM.

With `CC[C@H](C)[C@@H]1NC(=O)[C@@H](NC(=O)[C@H](CCC(N)=O)NC(=O)[C@H](C)N(C)C(=O)[C@H](Cc2c[nH]c3ccccc23)NC(C)=O)CCCCNC(=O)CC[C@@H](C(=O)N[C@@H](Cc2c[nH]cn2)C(=O)N[C@H](C(=O)N[C@@H](CCC(N)=O)C(=O)N[C@@H](CCCNC(=N)N)C(=O)N[C@H](C(=O)N[C@@H](Cc2c[nH]c3ccccc23)C(N)=O)C(C)C)C2CCCCC2)NC(=O)[C@H](CC(=O)O)NC(=O)[C@H](CC(C)C)NC1=O` [compound 446] (HELM PEPTIDE1{[ac].W.[meA].Q.K.I.L.D.E.H.[O=C([C@@H](N[*:1])C1CCCCC1)[*:2]].Q.R.V.W.[am]}$PEPTIDE1,PEPTIDE1,5:R3-9:R3$$$V2.0), the “β-Cat FP Hill slope” value was found to be 0.7. The Kd (read-out: β-Cat FP KD) is under 400 nM.

With `CCCCCCCCCCCC(=O)N[C@@H](Cc1c[nH]c2ccccc12)C(=O)N(C)[C@@H](C)C(=O)N[C@@H](CCC(N)=O)C(=O)N[C@H]1CCCCNC(=O)CC[C@@H](C(=O)N[C@@H](Cc2c[nH]cn2)C(=O)N[C@H](C(=O)N[C@@H](CCC(N)=O)C(=O)N[C@@H](CCCNC(=N)N)C(=O)N[C@H](C(=O)N[C@@H](Cc2c[nH]c3ccccc23)C(N)=O)C(C)C)C2CCCCC2)NC(=O)[C@H](CC(=O)O)NC(=O)[C@H](CC(C)C)NC(=O)[C@H]([C@@H](C)CC)NC1=O` [compound 447] (HELM PEPTIDE1{[CCCCCCCCCCCC(=O)[*:2]].W.[meA].Q.K.I.L.D.E.H.[O=C([C@@H](N[*:1])C1CCCCC1)[*:2]].Q.R.V.W.[am]}$PEPTIDE1,PEPTIDE1,5:R3-9:R3$$$V2.0), the Kd (read-out: β-Cat FP KD) was under 400 nM.

Consider `CC[C@H](C)[C@@H]1NC(=O)[C@H](CO)NC(=O)[C@@H](NC(=O)[C@H](C)N(C)C(=O)[C@H](Cc2c[nH]c3ccccc23)NC(C)=O)CCC(=O)NCCCC[C@@H](C(=O)N[C@@H](CCC(=O)O)C(=O)N[C@@H](Cc2c[nH]cn2)C(=O)N[C@H](C(=O)N[C@@H](CCC(N)=O)C(=O)N[C@@H](CCCNC(=N)N)C(=O)N[C@H](C(=O)N[C@@H](Cc2c[nH]c3ccccc23)C(=O)NCC(N)=O)C(C)C)C(C)C)NC(=O)[C@H](CC(C)C)NC1=O` [compound 450] (HELM PEPTIDE1{[ac].W.[meA].E.S.I.L.K.E.H.V.Q.R.V.W.G.[am]}$PEPTIDE1,PEPTIDE1,4:R3-8:R3$$$V2.0), for which the “β-Cat FP Hill slope” value is 0.79. In addition, where the note is “read-out: β-Cat FP KD”, the Kd is 400 to 1000 nM.

In the case of `CCCCCCCCCCCC(=O)N[C@@H](Cc1c[nH]c2ccccc12)C(=O)N(C)[C@@H](C)C(=O)N[C@H]1CCC(=O)NCCCC[C@@H](C(=O)N[C@@H](CCC(=O)O)C(=O)N[C@@H](Cc2c[nH]cn2)C(=O)N[C@H](C(=O)N[C@@H](CCC(N)=O)C(=O)N[C@@H](CCCNC(=N)N)C(=O)N[C@H](C(=O)N[C@@H](Cc2c[nH]c3ccccc23)C(=O)NCC(N)=O)C(C)C)C(C)C)NC(=O)[C@H](CC(C)C)NC(=O)[C@H]([C@@H](C)CC)NC(=O)[C@H](CO)NC1=O` [compound 451] (HELM PEPTIDE1{[CCCCCCCCCCCC(=O)[*:2]].W.[meA].E.S.I.L.K.E.H.V.Q.R.V.W.G.[am]}$PEPTIDE1,PEPTIDE1,4:R3-8:R3$$$V2.0), where the note is “read-out: β-Cat FP KD”, the Kd fell in the range of 1000 to 10000 nM.

On to `CCCCCCCCCCCC(=O)N[C@@H](Cc1c[nH]c2ccccc12)C(=O)N(C)[C@@H](C)C(=O)N[C@@H](CCC(N)=O)C(=O)N[C@H]1CCCCNC(=O)C[C@@H](C(=O)N[C@@H](Cc2c[nH]cn2)C(=O)N[C@H](C(=O)N[C@@H](CCC(N)=O)C(=O)N[C@@H](C)C(=O)N[C@H](C(N)=O)C(C)C)C2CCCCC2)NC(=O)[C@H](CC(N)=O)NC(=O)[C@H](CC(C)C)NC(=O)[C@H]([C@@H](C)CC)NC1=O` [compound 453] (HELM PEPTIDE1{[CCCCCCCCCCCC(=O)[*:2]].W.[meA].Q.K.I.L.N.D.H.[O=C([C@@H](N[*:1])C1CCCCC1)[*:2]].Q.A.V.[am]}$PEPTIDE1,PEPTIDE1,5:R3-9:R3$$$V2.0), for which, where the note is “β-Cat FP KD”, the Kd lay in the range of 1000 to 10000 nM.
